Measurements reported in patent US20090068143A1, “ORALLY EFFECTIVE C[…]” (priority 2005, published 2009).
pIC50: −log10 of the molar value.

Key:
[1] = Actual solubility in aqueous buffers / cosolvent (HPLC, spectrophotometer); format: physicochemical
Experimental: The actual solubility of certain compounds of the invention was assessed in aqueous buffers and final concentration of compounds was determined using HPLC and spectrophotometer methodologies. […] Therefore, compounds that were designed following the same rational yielded unexpectedly divergent outcome, for instance in connection with solubility in aqueous solutions.
It should be noted that following lyophilization compound 18F could be dissolved in 80 mM phosphate buffer at pH 6.9 even more efficiently at concentrations up to 60 mg/ml, about two order of magnitudes higher than expected.
Approximately 11 g of compound 18F were lyophilized in one lyophilization cycle. A cosolvent mixture comprising 38.6% w/v of compound 18F was divided into several dishes to fit the lyophilization chamber. As a result of lyophilization, a dry product with improved physical properties such as flowability and less stickiness was obtained.

[2] = Stability in aqueous solutions; format: physicochemical; settings: 95 μg/ml in citrate buffer (pH 7.1), 4° C.
Experimental: Stability of compounds of the invention in aqueous solutions was compared. Compounds were dissolved in buffer phosphate solutions and their concentration monitored using HPLC and spectrophotometer methodology. While compound 18F at concentration of 2 mg/ml in phosphate buffer (pH 7.0) was stable for at least 3 months at 4° C., compound 18B at concentration of 95 μg/ml in citrate buffer (pH 7.1) readily hydrolyzed in less than 24 hours at 4° C. Therefore, compounds that were designed following the same rational yielded unexpectedly divergent outcome, for instance in connection with stability in aqueous solutions.

iNOS [3] = assay: iNOS gene expression in LPS activated RAW 264.7 macrophages (real-time RT-PCR); format: cell-based, mouse; settings: for inhibition of iNOS gene expression: 10 μM, 1 h pre-treatment, 3 hrs after LPS activation
Experimental: (§1) RAW 264.7 macrophages, a mouse cell line (ATCC # TIB 71), were grown in Dulbecco's modified Eagle's medium (DMEM) with 4 mM L-glutamine adjusted to contain 1.5 g/L sodium bicarbonate, 4.5 g/L glucose, and 10% heat inactivated fetal bovine serum. Cells were grown in tissue culture flasks and seeded at appropriate density into 6 wells tissue culture plates. Four million Raw cells in half a milliliter were stimulated with 1 μg/ml Lipopolysaccharide E. coli 055:B5 (DIFCO Laboratories). The mouse macrophages were pre-treated for one hour with controls or 10 μM of test compounds, and later on activated with LPS. RNA samples were extracted from the cells 3 hrs after activation and iNOS gene expression levels were analyzed by real-time RT-PCR as previously described. For western blot analysis, compounds were tested at 1, 5 and 10 μM and cells were harvested 24 hrs after LPS stimulation. Supernatant were collected and NO secretion was analyzed using ELISA. Cells were washed 3 times with cold PBS, scrapped and lyzed in 100 μl cell lysis buffer containing 20 mM HEPES, pH 7.6, 150 mM NaCl, 1.5 mM MgCl2, 0.2 mM EDTA, 1% Triton X-100, 10% glycerol, 1 mM DTT, 1 mM PMSF, 10 μg/ml aprotinin. 5 µg/ml leupeptin, 10 mM p-nitrophenyl phosphate, 100 mM β-glycerophosphate, 1 mM sodium fluoride, and 0.1 μM sodium orthovanadate. Cells were lyzed on ice for 10 minutes before further processing.
The results of this experiment are expressed as fold activation of iNOS over non-activated macrophages, after normalization to cyclophilin A expression. Compound 18A inhibits 63% of iNOS gene expression, and compounds 18B, 18E and 18F inhibit 55%, 25% and 100% respectively. […] This surprising observation strengthen the fact that compounds of the invention, though chemically related, have distinct and unexpected properties.

visceral pain = assay: Visceral pain, acetic acid induced writhing responses; format: in vivo, ICR mice; settings: for inhibition of writhing responses as compared to vehicle treated group: 2 mg/kg i.v.
Experimental: For the i.v. part of the study, compounds were dissolved in CREMOPHOR®:Ethanol and diluted 1:20 in saline prior to injection, fifteen minutes before pain induction. When compounds were delivered per os, they were dissolved in phosphate buffer or in CREMOPHOR®:Ethanol as previously described and administered 1 hour before pain induction. Each treatment group, except for controls comprising at least 30 animals, was composed of at least 6 animals. Fifteen or sixty minutes later, depending on the route selected for drug administration, the mice were injected i.p. with 10 ml/kg of 0.6% acetic acid and the number of visceral pain related behaviors (writhing, stretching, contractions of the abdomen accompanied by an elongation of the body and extension of the hind limbs) is counted over a period of 5 minutes, starting 5 minutes after the acetic acid administration. These visceral pain related behaviors are globally defined as writhing responses (WR). The results are expressed as mean number of writhing responses±SEM. Data were analyzed using analysis of variance (ANOVA) followed by post-hoc Fisher test. A value of p<0.05 was considered to be statistically significant and is indicated on the figure by an asterisk over the relevant treatment group.
The following results were obtained at 2 mg/kg i.v. of test compounds or, in the case of the study performed with cannabinoid receptor antagonists, 1 mg/kg test compound or antagonist alone and 1 mg/kg test compound+1 mg/kg antagonist. In a separate study, it was shown that analgesic activity of compounds of the invention was dose related.

CB2 receptor = CB2 receptor (Homo sapiens, UniProt P34972); assay: CB2 binding assay
Chain of CB2 receptor (P34972 whole entry): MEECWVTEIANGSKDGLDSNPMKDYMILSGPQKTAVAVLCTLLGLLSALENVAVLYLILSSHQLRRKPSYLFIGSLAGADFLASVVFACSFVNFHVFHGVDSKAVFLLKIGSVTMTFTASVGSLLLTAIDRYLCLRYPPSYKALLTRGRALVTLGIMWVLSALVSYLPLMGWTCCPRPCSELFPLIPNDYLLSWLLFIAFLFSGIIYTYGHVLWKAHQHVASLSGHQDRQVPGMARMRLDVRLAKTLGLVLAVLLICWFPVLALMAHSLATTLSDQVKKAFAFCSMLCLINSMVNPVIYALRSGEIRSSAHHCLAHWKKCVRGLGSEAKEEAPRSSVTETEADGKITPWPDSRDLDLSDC

CB1 receptor = CB1 receptor (Homo sapiens, UniProt P21554); assay: CB1 binding assay
Chain of CB1 receptor (P21554 whole entry): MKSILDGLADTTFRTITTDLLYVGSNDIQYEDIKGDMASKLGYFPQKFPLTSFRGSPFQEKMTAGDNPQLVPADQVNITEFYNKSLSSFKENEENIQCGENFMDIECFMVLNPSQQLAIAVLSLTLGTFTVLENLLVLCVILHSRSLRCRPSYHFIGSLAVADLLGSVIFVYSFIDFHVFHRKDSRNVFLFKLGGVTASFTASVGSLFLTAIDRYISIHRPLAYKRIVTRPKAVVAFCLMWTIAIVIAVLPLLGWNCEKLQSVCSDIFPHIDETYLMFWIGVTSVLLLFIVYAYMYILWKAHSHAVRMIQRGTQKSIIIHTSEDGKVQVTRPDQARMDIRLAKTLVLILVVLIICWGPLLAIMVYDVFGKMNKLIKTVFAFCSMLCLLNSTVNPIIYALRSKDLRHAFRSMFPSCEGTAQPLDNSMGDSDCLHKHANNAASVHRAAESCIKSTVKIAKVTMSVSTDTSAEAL

MBP induced acute EAE = assay: MBP induced acute EAE; format: in vivo, Lewis rats; settings: 0.5-1 mg/kg i.v., 3 days after clinical onset
Experimental: In the present study, EAE was induced by injection of Myelin Basic Protein (MBP), a method known to model the acute phase of MS. In this model the onset of the disease is observed by the appearance of clinical symptoms about 10 days after induction. The disease progresses and the clinical score increases and peaks around day 15 and spontaneous recovery is observed around day 23 after induction of the disease.
Female Lewis rats (average body weight 130-180 g, Harlan, Israel) were injected s.c. into the hind paws with 25 μg of purified guinea pig myelin basic protein (MBP, Sigma) emulsified in 0.1 ml of Complete Freund's Adjuvant (Difco). Animals were maintained on a 12 hours light/12 hours dark regimen, at a constant temperature of 22° C., with food and water ad libitum. Starting from day 8 following induction, animals were followed up on a daily basis. The results are recorded as clinical score; score of 0 indicates a normal animal with no clinical signs, 0.5 indicates a loss of tonicity in the tail's distal part, 1 indicates whole tail paralysis, 1.5 indicates hind legs weakness in one leg, 2 indicates hind legs weakness in two legs, 2.5 indicates fore legs paralysis in one leg, 3 indicates paralysis of all four legs, 4 indicates complete body paralysis and moribund state and 5 indicates death. The clinical score of the animals is recorded for 15 days following onset of disease until the end of the study 25 days following induction and the area under the curve (AUC) is calculated over this period of time.
Few routes of administration were assessed and the treatments were either administered intravenously (in CE vehicle) or orally by gavage (in PB vehicle) at volume dose of 5 ml/kg.
Results are expressed as mean±SEM and the differences between the treatment groups were analyzed by analysis of variance (ANOVA) followed by Tukey's post hoc test. A value of p<0.05 was considered to be statistically significant and is indicated on the figure by an asterisk over the relevant treatment group.
Compound 18A was dissolved in CREMOPHOR EL®:ethanol and further diluted in physiological buffer prior to i.v. administration. It is now disclosed that compound 18F could be dissolved directly in 80 mM phosphate buffer (pH 6.4) and administered p.o. Compound 18F was administered by oral gavage at doses of 20, 30, 40, 50 and 60 mg/kg to animals showing clinical signs of the disease. Each treatment group comprised at least 10 animals at onset of disease. At some doses, experiments were repeated up to four times.

RAW 264.7 macrophages = assay: NO secretion of LPS activated RAW 264.7 macrophages (ELISA); format: cell-based; settings: Mus musculus, RAW264.7, 24 hrs after LPS stimulation
Experimental: as §1, with “processing. […]” for “processing.”

iNOS [4] = assay: iNOS protein expression in activated macrophages (western blot); format: cell-based, mouse; settings: 1, 5 and 10 μM, 24 hrs after LPS stimulation
Experimental: as §1, with “Cells were washed 3 times with cold PBS, scrapped and lyzed in 100 μl cell lysis buffer containing 20 mM HEPES, pH 7.6, 150 mM NaCl, 1.5 mM MgCl2, 0.2 mM EDTA, 1% Triton X-100, 10% glycerol, 1 mM DTT, 1 mM PMSF, 10 μg/ml aprotinin. 5 µg/ml leupeptin, 10 mM p-nitrophenyl phosphate, 100 mM β-glycerophosphate, 1 mM sodium fluoride, and 0.1 μM sodium orthovanadate. Cells were lyzed on ice for 10 minutes before further processing.” left out
To assess correlation between gene expression and protein expression, protein extracts were prepared from the various treated activated macrophages. […] Primary antibodies against cyclophilin A were used as control (Upstate, Cat# 07-313), and the amount of iNOS was assessed using NOS2 (C11) Santa Cruz antibodies (Cat# SC-7271) were hybridized for 2 hours at room temperature. […]

[5] = test system: Taxol® induced neuropathic pain; assay: Taxol® induced neuropathic pain; format: in vivo, Sprague Dawley rats; settings: gabapentin 100 mg/kg i.p., morphine 5 mg/kg i.p.; not statistically significant
Experimental: Male Sprague Dawley rats (average body weight 150-200 g, Harlan, Israel) were administered i.p. with 6 mg/kg Taxol® (Bristol Myers Squibb, USA) every other day for 9 days. On day 13, baseline pain threshold was measured. One hour later, the animals were administered with 5 ml/kg i.p. of vehicle (PB) only and pain threshold was re-established. After an additional hour animals were treated with various doses of compound 18F ranging from 0.5 mg/kg up to 10 mg/kg administered i.p. Morphine at 5 mg/kg i.p. and gabapentin at 100 mg/kg i.p served as positive controls. Each treatment group comprised at least eight animals. One hour post drug administration pain threshold was monitored using thermal and mechanical stimuli as previously described. At the end of the study, rats were euthanized with sodium pentobarbitone 100 mg/kg i.p. Sample rats were then transfused with saline and heparinized 4% formaldehyde solution. The L4-L5 area of the spinal cord and the sciatic nerve were taken for histopathology assessment.
The time latencies for thermal hyperalgesia, and force needed to induce pain of the different treatment groups are compared, using one way ANOVA (analysis of variance), followed by Duncan's post hoc test. A p<0.05 value was considered statistically significant and is indicated on the figure by an asterisk over the relevant treatment group.

EAE = settings: 40 mg/kg p.o. daily for 21 days from disease induction, cited from earlier work
[6] = oral administration, on an average; cited from earlier work

With CCCCCCC(C)(C)c1cc(O)c([C@H]2CC(=O)C3CC2C3(C)C)c(OC(=O)CCC(=O)O)c1 (single isomer, unassigned; (-)) [Compound 18B, (−)-4-{4-[1,1-dimethylheptyl]-2-succinate-6-hydroxy-phenyl}-6,6-dimethyl-bicyclo[3.1.1]heptan-2-one] the “divergence of solubility from prediction” value ([1]; aqueous citrate buffer (pH 7.1) vs calculated) was under 4 fold, the solubility ([1]; aqueous citrate buffer, pH 7.1, aqueous buffer, thermodynamic from solid, aqueous citrate buffer (pH 7.1), read-out: actual solubility) was at most 95 µg/mL and the “time to hydrolysis in solution” value [2] was “less than 24 hours”. The “inhibition of iNOS gene expression” value (iNOS [3]) was 55%, the “inhibition of writhing responses as compared to vehicle treated group” value (visceral pain) was 95% and the “inhibition of pain response as compared to untreated animals” value (visceral pain; 10 mg/kg p.o. in phosphate buffer) was 88%. The pIC50 (CB2 receptor) was 8.92 and the pIC50 (CB1 receptor) was 7.39.
With CCCCCCC(C)(C)c1cc(O)c([C@H]2CC(=O)[C@H]3C[C@@H]2C3(C)C)c(O)c1 [Compound 18A, (−)-4-[4-(1,1-Dimethylheptyl)-2,6-dihydroxy-phenyl]-6,6-dimethyl-bicyclo[3.1.1]heptan-2-one] the “reduction in AUC of clinical score” value (MBP induced acute EAE) was 30-35%, the “effect of CB1 or CB2 antagonists on iNOS inhibiting activity” value (iNOS [3]; 5 μM of SR-141716 and SR-144528) was “reversed by co-administration of either CB1 or CB2 antagonists” and the “inhibition of iNOS gene expression” value (iNOS [3]) was 63%. For the same molecule, the inhibition at 10 µM (RAW 264.7 macrophages) was 63%, the “iNOS protein band (western blot)” value (iNOS [4]) was “clear dose dependent disappearance of iNOS protein band” and the “inhibition of the number of writhing responses” value (visceral pain; 1 mg/kg i.v.) was 90%. The “effect of addition of CB1 antagonist on analgesic activity” value (visceral pain; 1 mg/kg i.v. + 1 mg/kg SR141716A) was “totally blocked”, the “effect of addition of CB2 antagonist on analgesic activity” value (visceral pain; 1 mg/kg i.v. + 1 mg/kg SR144528) was “did not affect” and the “inhibition of writhing responses as compared to vehicle treated group” value (visceral pain) was “total inhibition”. For the same molecule, the “inhibition of writhing responses” value (visceral pain; 10 mg/kg p.o. in CREMOPHOR®:Ethanol) was 70%, the pIC50 (CB2 receptor) was 9.00 and the pIC50 (CB1 receptor) was 7.56.
For NCC1(CC(=O)O)CCCCC1 [Gabapentin, reference compound], the “activity in visceral pain model” value (visceral pain; fumaric acid up to 5 mg/kg, Gabapentin up to 200 mg/kg, celecoxib up to 10 mg/kg) was “inactive” and the “effect on pain threshold” value [5] was “trend of increasing the pain threshold”.
For CCCCCc1cc(O)c2c(c1)OC(C)(C)[C@@H]1CC=C(C)C[C@@H]21 [Δ^8-THC, reference compound], the “solubility in aqueous buffer” value ([1]; in words) is given as “not soluble in aqueous buffer”, the “decrease of number of writhing responses as compared to the untreated group” value (visceral pain; 10 mg/kg p.o. in CREMOPHOR®:Ethanol, not statistically significant vs vehicle) is given as 47% and the “decrease of mean disease severity” value (EAE) is given as 20%. For the same molecule, the mean disease severity (EAE; vehicle 5.5±0.8) was 4.4±0.8.
For CCCCCc1cc(O)c2c(c1)OC(C)(C)[C@@H]1CCC(C)=C[C@@H]21 [Δ^9-THC, Δ^9-tetrahydrocannabinol], the absolute bioavailability [6] is listed as 13%.
